Measured values from publication PMC4865845, “A human genome-wide loss-of-function screen identifies effective chikungunya antiviral drugs” (Nature Communications, 2016).

test system: CHIKV; type: cell-based, chikungunya virus

Going from “s25624 (sense GGAATGGTGTTGATACAAA; chemistry not given here) [reference compound]” to “s38697 (GCAATTTGCTGTTGCCGAA; chemistry not given here)”, the Score_si3 rises from -0.7 to -0.06.

Compared with “Hs_GSTP1_5 (sense CCTCATCTACACCAACTATGA; chemistry not given here)”, “s2665 (sense GCTTCAGGATGTGCCCAAA; chemistry not given here)” is higher in Score_si3: 0.45 for the first, 0.58 for the second.

Compared with “Hs_RAD51L3_2 (sense CTCACTCTCTGTAAGCATATA; chemistry not given here)”, “s21425 (sense GCCTGTTACAGATGACATA; chemistry not given here)” is lower in Score_si3: 0.7 for the first, 0.63 for the second.

First: s9665 (CTCTCGTCCTTCTAGTAAA; chemistry not given here) [reference compound]
Second: s18704 (sense GCAGATTATTTGCAAGCGA; chemistry not given here) [reference compound]
The Score_si3 of the first is lower: -0.95 for the first, -0.73 for the second.

First: Hs_BCHE_3 (CAGGAGTGAGTGAGTTTGGAA; chemistry not given here)
Second: Hs_PPP1R8_8 (AACCCTGAAGCTGTAAATGAA; chemistry not given here)
The Score_si3 of the first is lower: 0.6 for the first, 0.62 for the second.

Going from “s195093 (sense AGCTGTCCCTCTTTGCTGT; chemistry not given here) [reference compound]” to “s17018 (GGAAATAGGTCTAGTACTA; chemistry not given here)”, the Score_si3 rises from -0.16 to 1.2.

Going from “s8261 (sense GGGTGGAGGTGTACTATGA; chemistry not given here)” to “s29269 (CAGTTTACCGAGGAAGAAA; chemistry not given here)”, the Score_si3 rises from 0.99 to 1.26.

First: s26229 (sense GGTGGTATACGGGACCAAT; chemistry not given here)
Second: s14706 (sense GCATGATCTAGATCGAGTA; chemistry not given here)
The Score_si3 of the first is lower: -0.1 for the first, 1.88 for the second.

Going from “Hs_KIAA0947_2 (sense CTGGCAGTTTATTGCTCTTAA; chemistry not given here)” to “Hs_NDUFA7_1 (CAGGGAGAATGTGACCTAATT; chemistry not given here) [reference compound]”, the Score_si1 falls from 2.71 to -2.23.

Going from “Hs_DKFZP564C186_1 (AAGGATGAGGACAGGAAGCAA; chemistry not given here)” to “Hs_NAG_2 (CAGACAGAAATTCTTTATCAA; chemistry not given here)”, the Score_si1 falls from 2.71 to 2.66.

Going from “Hs_TADA3L_2 (sense ACCGACTGGCAGGATAAGAAA; chemistry not given here) [reference compound]” to “Hs_CRSP8_1 (sense AACGAGAATGTCTACACAGAA; chemistry not given here) [reference compound]”, the Score_si1 falls from -1.99 to -2.6.

Compared with “Hs_DHX38_1 (CAGGATTTGGAAATAAATTTA; chemistry not given here)”, “s11515 (sense GGATAACACTGTACAAGCT; chemistry not given here)” is lower in Score_si1: 2.48 for the first, 1.79 for the second.

First: Hs_POLDIP3_2 (CCGGCTCAAACTGGGAGTCAA; chemistry not given here)
Second: Hs_CIZ1_1 (sense CAGGTGAGGTCCAGAGATATA; chemistry not given here) [reference compound]
The Score_si1 of the first is higher: 2.49 for the first, -1.69 for the second.

Compared with “Hs_BRD8_4 (CCGGCTGTCTCCACTACTGAA; chemistry not given here)”, “s15796 (CTACGATTCTGGTGGAATA; chemistry not given here)” is lower in Score_si1: 2.93 for the first, 1.5 for the second.

Compared with “s31660 (CTGTCACACTCACTGAAAA; chemistry not given here)”, “Hs_TOR2A_2 (CACGGGTGGCGAGCAGATCAA; chemistry not given here)” is higher in Score_si1: 1.8 for the first, 2.35 for the second.

Compared with “s8324 (GCTGGGAAGGGATACCACA; chemistry not given here)”, “Hs_NCOA1_14 (CTCCTAATATTTCGACATTAA; chemistry not given here)” is higher in Score_si1: 1.92 for the first, 2.06 for the second.

First: Hs_RPS6KC1_3 (sense ACCCTGATGCTGTATAATGTA; chemistry not given here) [reference compound]
Second: Hs_ADPRHL1_1 (CCCGACAATTATGATGCAGAA; chemistry not given here) [reference compound]
The Score_si1 of the first is lower: -2.87 for the first, -2.15 for the second.

First: s18241 (GCTTGATGGTTCAACTCCA; chemistry not given here)
Second: Hs_GUCY1B3_2 (sense ACCTAACATGGTGATCTGCAA; chemistry not given here) [reference compound]
The Score_si1 of the first is higher: 2.01 for the first, -1.2 for the second.

Going from “Hs_ZBTB24_2 (CAGCATGTGTCTGTAATTGTA; chemistry not given here)” to “Hs_E2F3_1 (TTGCGTTACTTTAAGTACTAA; chemistry not given here) [reference compound]”, the Score_si1 falls from 2.57 to -2.09.

Compared with “s17302 (GCTCCTTTAGGTTATGATA; chemistry not given here)”, “Hs_PPIL2_1 (CAGGGACAGCCTATTTATACA; chemistry not given here)” is higher in Score_si4: -0.05 for the first, 0.92 for the second.

First: Hs_RAD51L3_4 (sense CCCAGTAACGCCTGCTGTTTA; chemistry not given here)
Second: s26872 (sense GGGTTGACCTCATCCTCGA; chemistry not given here)
The Score_si4 of the first is lower: 0.33 for the first, 1.69 for the second.

First: s2822 (sense TGCTGACTTTTAACCCACA; chemistry not given here)
Second: Hs_IQGAP1_3 (sense AAGGCATATCAAGATCGGTTA; chemistry not given here)
The Score_si4 of the first is higher: 1 for the first, 0.77 for the second.

Going from “s10094 (AGATCAAAGAGATCCGCGA; chemistry not given here)” to “s8543 (CCTCAACAGTCACGTCAGA; chemistry not given here)”, the Score_si4 falls from 0.28 to -0.08.

Going from “Hs_ODZ3_2 (CCCAAATTTGATTTAACAGAA; chemistry not given here)” to “s15614 (sense GCAAGTCGTGAAACTATAA; chemistry not given here)”, the Score_si4 falls from 0.82 to 0.64.

Going from “s2529 (sense GCACCCGGTTTATCAGTAA; chemistry not given here)” to “Hs_ATF1_6 (AACCTAGTACATTACTAAATA; chemistry not given here) [reference compound]”, the Score_si4 falls from 0.17 to -0.75.

Compared with “s37727 (GTAGCAGTGTGGTAGGATA; chemistry not given here)”, “s5082 (sense CCTCGATAATATAACACGA; chemistry not given here)” is higher in Score_si4: -0.44 for the first, 0.67 for the second.

Compared with “Hs_GNB2L1_5 (sense TTGGCACACGCTAGAAGTTTA; chemistry not given here)”, “s16998 (GAAATTCCATGTCATTGTA; chemistry not given here)” is lower in Score_si4: 1.27 for the first, 0.65 for the second.

Compared with “s28991 (GAAGAGGTTTTGGAGTATA; chemistry not given here)”, “s38294 (GGGTCCTGTTCATAAAGGA; chemistry not given here)” is higher in Score_si4: 0.22 for the first, 1.14 for the second.

First: s37714 (GCTCCTCAAAGGATATGAA; chemistry not given here)
Second: s38817 (GCAAATCTCTCTATCCTTA; chemistry not given here)
The Score_si4 of the first is lower: -0.71 for the first, 0.06 for the second.

Compared with “s20630 (sense GCAAGCTGCTGATCGAGTT; chemistry not given here)”, “s16317 (GAACGAGTCCTTGAAGGTT; chemistry not given here)” is lower in Score_si4: 0.85 for the first, 0.08 for the second.

Compared with “Hs_MGC2803_1 (TGCGATGTACATAACTATTTA; chemistry not given here)”, “s26230 (sense CGGGACCAATTACCGCAAA; chemistry not given here)” is higher in Score_si4: -0.65 for the first, -0.18 for the second.

“s29015 (GAGAGTATATTGACTATGA; chemistry not given here)” gave a Score_si4 of 0.52.

Going from “s9627 (GGACCAGTTTGAGAGTGAA; chemistry not given here)” to “Hs_APPL_3 (TAGGAATAGGATAATGATATA; chemistry not given here) [reference compound]”, the Score_si2 falls from 1.39 to -1.06.

First: Hs_IRAK1_10 (sense AAGCAAGTCAGGTTTCATGTA; chemistry not given here)
Second: s34679 (GGAAAGAAGGGAATGAGTT; chemistry not given here)
The Score_si2 of the first is higher: 1.62 for the first, 1.1 for the second.

Going from “Hs_E2F3_5 (TACAGTATTTGCGTTACTTTA; chemistry not given here) [reference compound]” to “s49212 (sense GATCGTTCCTGGGTGTTCA; chemistry not given here)”, the Score_si2 rises from -1.78 to 0.94.

Going from “s16316 (GAATTAGGAAGGACTATTT; chemistry not given here)” to “Hs_P4HB_5 (CAGGACGGTCATTGATTACAA; chemistry not given here)”, the Score_si2 rises from 0.85 to 1.15.

First: s9338 (ACAAGCTCTCCAACAATTA; chemistry not given here) [reference compound]
Second: Hs_UBE2C_9 (AGCCCTTGTATATTAAATAAA; chemistry not given here) [reference compound]
The Score_si2 of the first is higher: -0.79 for the first, -0.83 for the second.

First: Hs_GUCY1B3_1 (sense AAGGGTCAAATGATCTACTTA; chemistry not given here) [reference compound]
Second: Hs_CNOT1_1 (sense CAGCTGGAATGGCTATGATTA; chemistry not given here)
The Score_si2 of the first is lower: -0.88 for the first, 2.61 for the second.

Compared with “s35016 (CCTGATCCACGAGAAGTCA; chemistry not given here)”, “s32097 (ACAGCGCAAGTTCCAGTAT; chemistry not given here)” is higher in Score_si2: 1.63 for the first, 1.75 for the second.

Compared with “Hs_TRAF2_2 (CAGAGTTATTAAACCATTCAA; chemistry not given here) [reference compound]”, “Hs_BOP1_2 (CTGCCATGGCATGGTGTACAA; chemistry not given here)” is higher in Score_si2: -0.92 for the first, 2.23 for the second.

Compared with “s12099 (sense GCTTGTAGGTGATACACCT; chemistry not given here)”, “Hs_IQGAP1_1 (sense CTGGGAGATAATGCCCACTTA; chemistry not given here)” is lower in Score_si2: 1.09 for the first, 1.04 for the second.
